The text below walks through data of patent US20260000692A1, “Substituted N-(Pyridin-2-yl)Acetamide Derivatives as CDK12/13 Inhibitors” (Aurigene Oncology Limited, priority 2022, published 2026).

The assay concerns the target CDK12 (Homo sapiens, UniProt Q9NYV4). Nature of the assay: Biochemical assay for CDK12 (LANCE TR-FRET, IC50 determination). Particulars: for IC50: CDK12, IC50 class, read-out: IC50 μM (in range); for inhibition at 10 µM / CDK12 % Inhibition @ 10 μM: compound at 10 μM; for inhibition at 10 µM: read-out: CDK12 % Inhibition @ 10 μM. On the procedure:
Biochemical Assay for CDK12 (IC50 Determination):
The inhibitory activity of the test compounds was assessed by the LANCE TR-FRET assay, which detects the ATP-dependent phosphorylation of an ULight-4E-BP1 (Thr37/Thr46) substrate peptide (100 nM) by CDK12 (30 nM). Briefly, the enzyme reaction was run in reaction buffer (25 mM HEPES (pH 7.5), 10 mM MgCl2, […], 0.01% Triton x, 1 mM DTT). The assay was performed in 384-well plate format. The end concentration of the ATP substrate was […], and that of the ULight-4E-BP1 (Thr37/Thr46) substrate peptide was 100 nM, and of CDK12 was 30 nM. Pre-incubation of the compound and enzyme was performed for 60 min at room temperature. After 60 min incubation at room temperature, the reaction was terminated by the addition of 40 mM EDTA and 0.5 nM Eu-labeled anti-phospho-eIF4E-binding protein (Thr37/46) antibody in LANCE detection buffer. Time-resolved fluorescence (excitation, 320 nm; emission donor, 615 nm; emission acceptor, 665 nm) was monitored by using 2030 multilabel reader Victor5 (PerkinElmer). The Fluorescence emission of the samples were measured and the ratio was plotted against the compound concentration to generate the dose response curve. The IC50 values were derived by fitting a sigmoidal dose-response curve to a plot of assay readout over inhibitor concentration. All fits were computed with the program Prism 5.03 (Graph Pad Software, San Diego, CA). The % inhibition values at […] were calculated with respect to enzyme activity.
A general note: In TR-FRET formats the signal depends on donor and acceptor labels being close together.

A value given as a limit tells only on which side of the number the result lay.

CDK12, sequence (Q9NYV4 whole entry): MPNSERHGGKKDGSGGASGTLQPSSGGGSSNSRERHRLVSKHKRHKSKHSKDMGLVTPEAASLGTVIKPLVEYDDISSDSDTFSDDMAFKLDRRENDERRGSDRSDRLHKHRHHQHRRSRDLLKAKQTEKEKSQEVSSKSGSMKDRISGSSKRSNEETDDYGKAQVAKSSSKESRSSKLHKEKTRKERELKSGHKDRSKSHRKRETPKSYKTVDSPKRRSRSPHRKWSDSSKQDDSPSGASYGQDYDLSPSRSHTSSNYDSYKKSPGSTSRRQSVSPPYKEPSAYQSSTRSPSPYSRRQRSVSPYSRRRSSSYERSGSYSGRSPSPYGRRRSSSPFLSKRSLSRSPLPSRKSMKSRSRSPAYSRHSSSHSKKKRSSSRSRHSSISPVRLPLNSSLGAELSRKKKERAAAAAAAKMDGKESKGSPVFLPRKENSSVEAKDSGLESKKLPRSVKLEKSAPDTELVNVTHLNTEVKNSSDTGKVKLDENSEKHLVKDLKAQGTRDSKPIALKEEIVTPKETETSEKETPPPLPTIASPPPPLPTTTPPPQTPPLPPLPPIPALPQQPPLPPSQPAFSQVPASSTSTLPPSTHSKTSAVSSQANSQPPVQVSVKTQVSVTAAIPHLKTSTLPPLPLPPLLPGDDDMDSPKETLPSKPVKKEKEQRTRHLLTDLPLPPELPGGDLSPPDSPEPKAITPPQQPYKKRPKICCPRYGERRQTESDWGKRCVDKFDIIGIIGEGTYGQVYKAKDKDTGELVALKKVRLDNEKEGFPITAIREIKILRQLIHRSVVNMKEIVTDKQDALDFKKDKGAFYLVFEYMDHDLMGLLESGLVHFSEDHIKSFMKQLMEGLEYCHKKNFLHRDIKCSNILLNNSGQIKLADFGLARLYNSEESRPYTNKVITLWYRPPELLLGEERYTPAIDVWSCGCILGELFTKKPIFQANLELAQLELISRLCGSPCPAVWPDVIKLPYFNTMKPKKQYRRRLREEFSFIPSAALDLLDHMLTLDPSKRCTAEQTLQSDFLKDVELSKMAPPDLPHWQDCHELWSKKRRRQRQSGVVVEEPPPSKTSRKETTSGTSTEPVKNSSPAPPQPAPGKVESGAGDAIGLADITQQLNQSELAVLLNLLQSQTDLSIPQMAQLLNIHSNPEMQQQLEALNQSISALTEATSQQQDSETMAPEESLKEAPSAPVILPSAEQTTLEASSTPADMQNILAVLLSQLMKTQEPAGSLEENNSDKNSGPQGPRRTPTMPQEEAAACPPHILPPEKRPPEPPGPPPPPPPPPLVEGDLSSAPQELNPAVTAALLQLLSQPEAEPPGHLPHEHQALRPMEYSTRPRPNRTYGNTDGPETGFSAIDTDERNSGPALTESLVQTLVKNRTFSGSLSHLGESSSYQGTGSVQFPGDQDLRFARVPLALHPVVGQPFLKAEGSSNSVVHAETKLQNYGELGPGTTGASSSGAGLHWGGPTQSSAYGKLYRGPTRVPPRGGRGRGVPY
CDK12, sequence (O75909 whole entry partner): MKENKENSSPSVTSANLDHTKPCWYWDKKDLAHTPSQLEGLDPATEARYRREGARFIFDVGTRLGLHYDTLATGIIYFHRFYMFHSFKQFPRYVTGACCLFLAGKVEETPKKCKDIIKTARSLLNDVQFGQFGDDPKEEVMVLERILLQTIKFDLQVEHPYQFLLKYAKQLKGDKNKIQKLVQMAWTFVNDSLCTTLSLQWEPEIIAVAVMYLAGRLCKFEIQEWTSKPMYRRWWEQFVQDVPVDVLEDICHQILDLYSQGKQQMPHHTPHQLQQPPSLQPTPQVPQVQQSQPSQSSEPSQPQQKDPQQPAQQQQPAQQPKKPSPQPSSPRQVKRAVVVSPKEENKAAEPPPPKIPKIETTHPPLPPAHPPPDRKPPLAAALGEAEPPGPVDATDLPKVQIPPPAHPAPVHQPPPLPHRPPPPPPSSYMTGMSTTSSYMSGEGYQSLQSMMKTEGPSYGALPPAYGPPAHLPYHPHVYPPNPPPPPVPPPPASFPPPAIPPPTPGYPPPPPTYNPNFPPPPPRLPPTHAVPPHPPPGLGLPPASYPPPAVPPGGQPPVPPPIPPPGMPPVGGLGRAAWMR

On to `CNC(=O)C(C)Oc1cc(NC(=O)Cc2ccc(-c3cccc(C#N)n3)nc2)ncc1Cl` (racemic) [Compound 155, 2-((5-chloro-2-(2-(6′-cyano-[2,2′-bipyridin]-5-yl)acetamido)pyridin-4-yl)oxy)-N-methylpropanamide], for which the IC50 was in the range of 0.01 to 0.1 µM and the inhibition at 10 µM is 97%.

Regarding `CNC(=O)C(C)Oc1cc(NC(=O)Cc2ccc(C3=CCN(C#N)CC3)nc2)ncc1Cl` (single isomer, unassigned) [Compound 2, 2-((5-chloro-2-(2-(1′-cyano-1′,2′,3′,6′-tetrahydro-[2,4′-bipyridin]-5-yl)acetamido)pyridin-4-yl)oxy)-N-methylpropanamide], the IC50 was < 0.01 µM and the inhibition at 10 µM amounted to 90%.

As to `CNC(=O)C(C)Oc1cc(NC(=O)Cc2ccc(C3=CCN(C#N)CC3)nc2)ncc1Cl` (single isomer, unassigned) [Compound 3, 2-((5-chloro-2-(2-(1′-cyano-1′,2′,3′,6′-tetrahydro-[2,4′-bipyridin]-5-yl)acetamido)pyridin-4-yl)oxy)-N-methylpropanamide], the IC50 is < 0.01 µM and the inhibition at 10 µM came out at 84%.

With `N#CN1CCC=C(c2ccc(CC(=O)Nc3cc(OC4CCCOC4)c(Cl)cn3)cn2)C1` (single isomer, unassigned) [Compound 44, N-(5-chloro-4-((tetrahydro-2H-pyran-3-yl)oxy)pyridin-2-yl)-2-(1′-cyano-1′,2′,5′,6′-tetrahydro-[2,3′-bipyridin]-5-yl)acetamide], the half-maximal inhibitory concentration (IC50) was < 0.01 µM and the inhibition at 10 µM is 89%.

In the case of `N#CN1CCC=C(c2ccc(CC(=O)Nc3cc(OC4CCCOC4)c(Cl)cn3)cn2)C1` (single isomer, unassigned) [Compound 45, N-(5-chloro-4-((tetrahydro-2H-pyran-3-yl)oxy)pyridin-2-yl)-2-(1′-cyano-1′,2′,5′,6′-tetrahydro-[2,3′-bipyridin]-5-yl)acetamide], the IC50 is < 0.01 µM. Further, the “CDK12 % Inhibition @ 10 μM” value (10 µM) was found to be 92%.

Take `COc1cc(NC(=O)C(C)c2ccc(C3=CCCN(C#N)C3)nc2)ncc1Cl` (single isomer, unassigned) [Compound 49]: the IC50 is < 0.01 µM and the inhibition at 10 µM was 89%.

`COc1cc(NC(=O)C(C)c2ccc(C3=CCN(C#N)CC3)nc2)ncc1Cl` (single isomer, unassigned) [Compound 52]: the IC50 was < 0.01 µM and the inhibition at 10 µM came to 102%.

On to `CNC(=O)C(C)Oc1cc(NC(=O)Cc2ccc(C3=CCCN(C#N)C3)nc2)ncc1Cl` (single isomer, unassigned) [Compound 57, 2-((5-chloro-2-(2-(1′-cyano-1′,2′,5′,6′-tetrahydro-[2,3′-bipyridin]-5-yl)acetamido)pyridin-4-yl)oxy)-N-methylpropanamide], for which the IC50 was < 0.01 µM and the inhibition at 10 µM is 78%.

With `CNC(=O)C(C)Oc1cc(NC(=O)Cc2ccc(C3=CCCN(C#N)C3)nc2)ncc1Cl` (single isomer, unassigned) [Compound 58, 2-((5-chloro-2-(2-(1′-cyano-1′,2′,5′,6′-tetrahydro-[2,3′-bipyridin]-5-yl)acetamido)pyridin-4-yl)oxy)-N-methylpropanamide], the IC50 was < 0.01 µM. The “CDK12 % Inhibition @ 10 μM” value (10 µM) turned out to be 98%.

For the compound `CC1CC(Oc2cc(NC(=O)Cc3ccc(C4=CCCN(C#N)C4)nc3)ncc2Cl)CCN1C` (single isomer, unassigned) [Compound 64, N-(5-chloro-4-((1,2-dimethylpiperidin-4-yl)oxy)pyridin-2-yl)-2-(1′-cyano-1′,2′,5′,6′-tetrahydro-[2,3′-bipyridin]-5-yl)acetamide], the IC50 is < 0.01 µM and the inhibition at 10 µM is 92%.

Take `COc1cc(NC(=O)Cc2ccc(C3=CCN(C#N)C(C)C3)nc2)ncc1Cl` (single isomer, unassigned) [Compound 66, N-(5-chloro-4-methoxypyridin-2-yl)-2-(1′-cyano-2′-methyl-1′,2′,3′,6′-tetrahydro-[2,4′-bipyridin]-5-yl)acetamide]: the IC50 was 0.01 to 0.1 µM and the inhibition at 10 µM is 88%.

For `COc1cc(NC(=O)Cc2ccc(C3=CCN(C#N)C(C)C3)nc2)ncc1Cl` (single isomer, unassigned) [Compound 67, N-(5-chloro-4-methoxypyridin-2-yl)-2-(1′-cyano-2′-methyl-1′,2′,3′,6′-tetrahydro-[2,4′-bipyridin]-5-yl)acetamide], the IC50 lay in the range of 0.01 to 0.1 µM. Also, the “CDK12 % Inhibition @ 10 μM” value (10 µM) worked out at 86%.

Consider `COc1cc(NC(=O)Cc2ccc(C3=CCN(C#N)C(C)C3)nc2)ncc1Cl` (single isomer, unassigned) [Compound 68, N-(5-chloro-4-methoxypyridin-2-yl)-2-(1′-cyano-2′-methyl-1′,2′,3′,6′-tetrahydro-[2,4′-bipyridin]-5-yl)acetamide], for which the IC50 was < 0.01 µM. Where the note is “10 µM”, the “CDK12 % Inhibition @ 10 μM” value was 87%.

For the compound `COc1cc(NC(=O)Cc2ccc(C3=CCN(C#N)CC3C)nc2)ncc1Cl` (single isomer, unassigned) [Compound 71, N-(5-chloro-4-methoxypyridin-2-yl)-2-(1′-cyano-3′-methyl-1′,2′,3′,6′-tetrahydro-[2,4′-bipyridin]-5-yl)acetamide], the IC50 was < 0.01 µM and the inhibition at 10 µM was 93%.

Consider `COc1cc(NC(=O)Cc2ccc(C3=CCN(C#N)CC3C)nc2)ncc1Cl` (single isomer, unassigned) [Compound 72, N-(5-chloro-4-methoxypyridin-2-yl)-2-(1′-cyano-3′-methyl-1′,2′,3′,6′-tetrahydro-[2,4′-bipyridin]-5-yl)acetamide], for which the IC50 was < 0.01 µM. The “CDK12 % Inhibition @ 10 μM” value (10 µM) is 92%.

Regarding `COc1cc(NC(=O)Cc2ccc(C3CCCN(C#N)C3)nc2)ncc1Cl` (single isomer, unassigned) [Compound 79, N-(5-chloro-4-methoxypyridin-2-yl)-2-(6-(1-cyanopiperidin-3-yl)pyridin-3-yl)acetamide], the IC50 was > 0.1 µM and the inhibition at 10 µM came to 79%.

Regarding `COc1cc(NC(=O)Cc2ccc(C3CCCN(C#N)C3)nc2)ncc1Cl` (single isomer, unassigned) [Compound 80, N-(5-chloro-4-methoxypyridin-2-yl)-2-(6-(1-cyanopiperidin-3-yl)pyridin-3-yl)acetamide], the IC50 was in the range of 0.01 to 0.1 µM. Further, the “CDK12 % Inhibition @ 10 μM” value (10 µM) amounted to 87%.

For the compound `CNC(=O)C(C)Oc1cc(NC(=O)Cc2ccc(C3CCN(C#N)CC3)nc2)ncc1Cl` (single isomer, unassigned) [Compound 83, 2-((5-chloro-2-(2-(6-(1-cyanopiperidin-4-yl)pyridin-3-yl)acetamido)pyridin-4-yl)oxy)-N-methylpropanamide], the IC50 is 0.01 to 0.1 µM and the inhibition at 10 µM is 84%.

Consider `CNC(=O)C(C)Oc1cc(NC(=O)Cc2ccc(C3CCN(C#N)CC3)nc2)ncc1Cl` (single isomer, unassigned) [Compound 84, 2-((5-chloro-2-(2-(6-(1-cyanopiperidin-4-yl)pyridin-3-yl)acetamido)pyridin-4-yl)oxy)-N-methylpropanamide], for which the IC50 was < 0.01 µM and the “CDK12 % Inhibition @ 10 μM” value came out at 84%.

For orientation: IC50 means the concentration needed to halve the response being measured. By inhibition is commonly meant the relative decrease from the control value, in per cent.
